Source: ChEMBL document CHEMBL5096214, “Discovery of a new class of valosine containing protein (VCP/P97) inhibitors for the treatment of colorectal cancer” (Bioorg Med Chem, 2022)
Blank lines part the entries; values can stand above or below the compound they belong to. Calls of active or inactive are those of the source. The rule behind the calls is not given here.

Assays:
[1] = biological target: Transitional endoplasmic reticulum ATPase (Homo sapiens, UniProt P55072); assay: Inhibition of p97 (unknown origin) using ATP as substrate incubated for 60 mins by ADP-Glo reagent based luminescence assay
HCT-116 [2] = assay: Anti-proliferative activity against human HCT-116 cells assessed as inhibition of cell proliferation incubated for 72 hrs by CellTiter-Glo luminescent assay; format: functional, cell-based; conditions: HCT-116, 72 h
[3] = MRT in Sprague-Dawley rat at 10 mg/kg, po measured for 30 hrs by LC-MS/MS analysis; format: ADME, organism-based; conditions: in vivo
[4] = AUC (0 to infinity) in Sprague-Dawley rat at 10 mg/kg, po by LC-MS/MS analysis; format: ADME, organism-based; design: time infinity, dose 10 mg/kg, route po; conditions: in vivo
[5] = MRT in Sprague-Dawley rat at 1 mg/kg, iv measured for 24 hrs by LC-MS/MS analysis; format: ADME, organism-based; conditions: in vivo
[6] = Cmax in Sprague-Dawley rat at 10 mg/kg, po measured for 30 hrs by LC-MS/MS analysis; format: ADME, organism-based; design: dose 10 mg/kg, time 30 hrs, route po; conditions: in vivo
[7] = AUC (0 to t) in Sprague-Dawley rat at 10 mg/kg, po measured for 30 hrs by LC-MS/MS analysis; format: ADME, organism-based; design: dose 10 mg/kg, time 30 hrs, route po; conditions: in vivo
[8] = Oral bioavailability in Sprague-Dawley rat at 10 mg/kg measured for 30 hrs by LC-MS/MS analysis; format: ADME, organism-based; conditions: in vivo
[9] = Tmax in Sprague-Dawley rat at 10 mg/kg, po measured for 30 hrs by LC-MS/MS analysis; format: ADME, organism-based; conditions: in vivo
[10] = AUC (0 to t) in Sprague-Dawley rat at 1 mg/kg, iv measured for 24 hrs by LC-MS/MS analysis; format: ADME, organism-based; design: time 24 hrs, dose 1 mg/kg, route iv; conditions: in vivo
[11] = AUC (0 to infinity) in Sprague-Dawley rat at 1 mg/kg, iv by LC-MS/MS analysis; format: ADME, organism-based; design: time infinity, dose 1 mg/kg, route iv; conditions: in vivo
[12] = Elimination half life in Sprague-Dawley rat at 10 mg/kg, po measured for 30 hrs by LC-MS/MS analysis; format: ADME, organism-based; conditions: in vivo, read-out: beta t1/2 (converted)
[13] = Elimination half life in Sprague-Dawley rat at 1 mg/kg, iv measured for 24 hrs by LC-MS/MS analysis; format: ADME, organism-based; conditions: in vivo, read-out: beta t1/2 (converted)
[14] = Intrinsic clearance in monkey liver microsomes at 1 uM in presence of beta-NADPH measured for 60 mins by LC-MS/MS analysis; format: ADME, Macaca mulatta, Microsome; conditions: rhesus monkey, read-out: CLH
[15] = Intrinsic clearance in rat liver microsomes at 1 uM in presence of beta-NADPH measured for 60 mins by LC-MS/MS analysis; format: ADME, Microsome; conditions: read-out: CLH
[16] = Toxicity in BALB/c mouse xenografted with human HCT-116 cells assessed as side effects at 100 mg/kg, po qd for 21 days; format: organism-based; conditions: in vivo, 504 h, time 21 day
[17] = Toxicity in BALB/c mouse xenografted with human HCT-116 cells assessed as body weight loss at 100 mg/kg, po qd for 21 days; format: organism-based; conditions: in vivo, 504 h, time 21 day
[18] = Cmax in Sprague-Dawley rat at 1 mg/kg, iv measured for 24 hrs by LC-MS/MS analysis; format: ADME, organism-based; design: dose 1 mg/kg, time 24 hrs, route iv; conditions: in vivo
[19] = Half life in dog liver microsomes at 1 uM in presence of beta-NADPH measured for 60 mins by LC-MS/MS analysis; format: ADME, Canis lupus familiaris, Microsome
[20] = Half life in monkey liver microsomes at 1 uM in presence of beta-NADPH measured for 60 mins by LC-MS/MS analysis; format: ADME, Macaca mulatta, Microsome; conditions: rhesus monkey
HCT-116 [21] = assay: Anti-tumor activity against human HCT-116 cells xenografted in BALB/c mouse assessed as reduction in tumor volume at 100 mg/kg, po qd for 21 days; format: functional, organism-based; conditions: time 21.0 day
[22] = Half life in human liver microsomes at 1 uM in presence of beta-NADPH measured for 60 mins by LC-MS/MS analysis; format: ADME, Microsome
[23] = Intrinsic clearance in dog liver microsomes at 1 uM in presence of beta-NADPH measured for 60 mins by LC-MS/MS analysis; format: ADME, Canis lupus familiaris, Microsome; conditions: read-out: CLH
[24] = Intrinsic clearance in human liver microsomes at 1 uM in presence of beta-NADPH measured for 60 mins by LC-MS/MS analysis; format: ADME, Microsome; conditions: read-out: CLH
[25] = Tmax in Sprague-Dawley rat at 1 mg/kg, iv measured for 24 hrs by LC-MS/MS analysis; format: ADME, organism-based; conditions: in vivo
[26] = Intrinsic clearance in mouse liver microsomes at 1 uM in presence of beta-NADPH measured for 60 mins by LC-MS/MS analysis; format: ADME, Microsome; conditions: read-out: CLH
[27] = Half life in mouse liver microsomes at 1 uM in presence of beta-NADPH measured for 60 mins by LC-MS/MS analysis; format: ADME, Microsome
[28] = Half life in rat liver microsomes at 1 uM in presence of beta-NADPH measured for 60 mins by LC-MS/MS analysis; format: ADME, Microsome
[29] = Toxicity in BALB/c mouse xenografted with human HCT-116 cells assessed as animals death at 100 mg/kg, po measured on day 8; format: organism-based; conditions: in vivo, 192 h, time 8 day
[30] = Toxicity in BALB/c mouse xenografted with human HCT-116 cells assessed as body weight loss at 100 mg/kg, po measured on day 4; format: organism-based; conditions: in vivo, 96 h, time 4 day
[31] = Toxicity in BALB/c mouse xenografted with human HCT-116 cells assessed as side effects at 50 mg/kg, po qd for 21 days; format: organism-based; conditions: in vivo, 504 h, time 21 day
[32] = Toxicity in BALB/c mouse xenografted with human HCT-116 cells assessed as body weight loss at 50 mg/kg, po qd for 21 days; format: organism-based; conditions: in vivo, 504 h, time 21 day
[33] = Toxicity in BALB/c mouse xenografted with human HCT-116 cells assessed as side effects at 100 mg/kg, po measured on day 4; format: organism-based; conditions: in vivo, 96 h, time 4 day

Transitional endoplasmic reticulum ATPase, sequence (P55072 whole entry): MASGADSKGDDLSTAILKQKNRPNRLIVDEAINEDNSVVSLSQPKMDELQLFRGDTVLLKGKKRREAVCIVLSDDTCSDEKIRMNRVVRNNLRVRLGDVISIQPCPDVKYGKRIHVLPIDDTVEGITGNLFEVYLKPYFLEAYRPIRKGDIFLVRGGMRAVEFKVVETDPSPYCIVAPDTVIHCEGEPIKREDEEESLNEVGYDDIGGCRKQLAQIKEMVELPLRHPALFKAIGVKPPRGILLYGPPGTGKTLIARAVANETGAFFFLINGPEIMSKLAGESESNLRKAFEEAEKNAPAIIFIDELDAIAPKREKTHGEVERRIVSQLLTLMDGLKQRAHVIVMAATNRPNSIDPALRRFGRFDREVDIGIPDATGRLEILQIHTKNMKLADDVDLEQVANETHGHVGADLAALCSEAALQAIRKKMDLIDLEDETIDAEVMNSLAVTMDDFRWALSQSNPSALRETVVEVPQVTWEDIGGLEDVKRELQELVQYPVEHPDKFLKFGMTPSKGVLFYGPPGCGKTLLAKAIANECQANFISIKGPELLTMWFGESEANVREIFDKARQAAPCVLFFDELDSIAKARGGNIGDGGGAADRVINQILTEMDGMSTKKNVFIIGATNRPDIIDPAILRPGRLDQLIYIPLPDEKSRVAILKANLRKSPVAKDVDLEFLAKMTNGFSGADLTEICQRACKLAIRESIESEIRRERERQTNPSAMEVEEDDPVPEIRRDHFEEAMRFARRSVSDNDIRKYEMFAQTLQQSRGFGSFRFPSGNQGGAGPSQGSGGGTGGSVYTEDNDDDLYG

- IC50 [1]: 49 nM
- IC50 (HCT-116 [2]): 1200 nM
Compound: Cc1cc2c(NC(=O)c3ccco3)cccc2n1-c1nc2c(c(NCc3cccc(O)c3)n1)CCC2

- IC50 [1]: 54 nM
- IC50 (HCT-116 [2]): 1000 nM
Compound: CONC(=O)c1cccc2c1cc(C)n2-c1nc2c(c(NCc3cccc(B(O)O)c3)n1)CCC2

- IC50 [1]: 3510 nM
Compound: Cc1cc2c(NC(=O)/C=C/c3ccccc3)cccc2n1-c1nc2c(c(NCc3cccc(O)c3)n1)CCC2

- MRT [3]: 201 min
- AUC(0-inf) [4]: 121 ng·h/mL
- MRT [5]: 73.8 min
- IC50 [1]: 48 nM
- Cmax [6]: 52.5 ng/mL
- AUC(0-t) at 30 h [7]: 108 ng·h/mL
- bioavailability [8]: 11.1%
- Tmax [9]: 30 min
- AUC(0-t) at 24 h [10]: 94.8 ng·h/mL
- IC50 (HCT-116 [2]): 300 nM
- AUC(0-inf) [11]: 108 ng·h/mL
- half-life [12]: 153 min
- half-life [13]: 50.4 min
Compound: CONC(=O)c1cccc2c1cc(C)n2-c1nc2c(c(NCc3cccc(O)c3)n1)CCC2

- IC50 [1]: 233 nM
Compound: Cc1cc2c(C(=N)N)cccc2n1-c1nc2c(c(NCc3cccc(O)c3)n1)CCC2

- IC50 [1]: 154 nM
Compound: Cc1cc2c(C(N)=O)cccc2n1-c1nc2c(c(NCc3cccc(N)c3)n1)CCC2

- IC50 [1]: 185 nM
Compound: Cc1cc2c(NC(=O)c3cccs3)cccc2n1-c1nc2c(c(NCc3cccc(O)c3)n1)CCC2

- IC50 [1]: 216 nM
Compound: Cc1cc2c(NC(=O)c3cscn3)cccc2n1-c1nc2c(c(NCc3cccc(O)c3)n1)CCC2

- microsomal CLint at 1 µM [14]: 58.2 µL/min/mg
- microsomal CLint at 1 µM [15]: 132 µL/min/mg
- MRT [3]: 276 min
- Cmax [18]: 284 ng/mL
- half-life at 1 µM [19]: 34.8 min
- half-life at 1 µM [20]: 23.8 min
- AUC(0-inf) [4]: 345 ng·h/mL
- half-life at 1 µM [22]: 37.1 min
- microsomal CLint at 1 µM [23]: 39.8 µL/min/mg
- MRT [5]: 67.2 min
- IC50 [1]: 53 nM
- Cmax [6]: 130 ng/mL
- AUC(0-t) at 30 h [7]: 283 ng·h/mL
- microsomal CLint at 1 µM [24]: 37.4 µL/min/mg
- bioavailability [8]: 23.5%
- Tmax [25]: 4.8 min
- Tmax [9]: 30 min
- microsomal CLint at 1 µM [26]: 48.2 µL/min/mg
- AUC(0-t) at 24 h [10]: 142 ng·h/mL
- half-life at 1 µM [27]: 28.8 min
- IC50 (HCT-116 [2]): 400 nM
- half-life at 1 µM [28]: 10.5 min
- AUC(0-inf) [11]: 147 ng·h/mL
- half-life [12]: 228 min
- half-life [13]: 168 min
Compound: Cc1cc2c(C(N)=O)cccc2n1-c1nc2c(c(NCc3cccc(O)c3)n1)CCC2
- Activity [16]: Non-Toxic
- Activity [17]: Non-Toxic
- Activity (HCT-116 [21]): Active

- IC50 [1]: 96 nM
- IC50 (HCT-116 [2]): 2400 nM
Compound: C/C=C/C(=O)Nc1cccc2c1cc(C)n2-c1nc2c(c(NCc3cccc(O)c3)n1)CCC2

- IC50 [1]: 26 nM
- IC50 (HCT-116 [2]): 1200 nM
Compound: C=CC(=O)Nc1cccc2c1cc(C)n2-c1nc2c(c(NCc3cccc(O)c3)n1)CCC2

- IC50 [1]: 72 nM
- IC50 (HCT-116 [2]): 1400 nM
Compound: CCONC(=O)c1cccc2c1cc(C)n2-c1nc2c(c(NCc3cccc(B(O)O)c3)n1)CCC2

- IC50 [1]: 31 nM
- IC50 (HCT-116 [2]): 600 nM
Compound: CCONC(=O)c1cccc2c1cc(C)n2-c1nc2c(c(NCc3cccc(O)c3)n1)CCC2

- IC50 [1]: 1220 nM
Compound: CON(C)C(=O)c1cccc2c1cc(C)n2-c1nc2c(c(NCc3cccc(B(O)O)c3)n1)CCC2

Compound: Cc1cc2c(C(N)=O)cccc2n1-c1nc2c(c(NCc3ccccc3)n1)CCCN2
- Activity [29]: Toxic
- microsomal CLint at 1 µM [14]: 203 µL/min/mg
- microsomal CLint at 1 µM [15]: 318 µL/min/mg
- MRT [3]: 96 min
- half-life at 1 µM [19]: 33 min
- half-life at 1 µM [20]: 9.8 min
- AUC(0-inf) [4]: 796 ng·h/mL
- half-life at 1 µM [22]: 35.9 min
- microsomal CLint at 1 µM [23]: 60 µL/min/mg
- MRT [5]: 25.2 min
- IC50 [1]: 44 nM
- Cmax [6]: 444 ng/mL
- Activity [30]: Toxic
- AUC(0-t) at 30 h [7]: 779 ng·h/mL
- Activity [31]: Non-Toxic
- microsomal CLint at 1 µM [24]: 36.5 µL/min/mg
- bioavailability [8]: 20%
- Activity [32]: Non-Toxic
- Tmax [9]: 30 min
- microsomal CLint at 1 µM [26]: 176 µL/min/mg
- AUC(0-t) at 24 h [10]: 390 ng·h/mL
- half-life at 1 µM [27]: 19.1 min
- IC50 (HCT-116 [2]): 700 nM
- half-life at 1 µM [28]: 7.9 min
- Activity [33]: Toxic
- AUC(0-inf) [11]: 398 ng·h/mL
- half-life [12]: 73.8 min
- half-life [13]: 22.8 min

- IC50 [1]: 35 nM
- IC50 (HCT-116 [2]): 1100 nM
Compound: Cc1cc2c(C(=N)NO)cccc2n1-c1nc2c(c(NCc3cccc(O)c3)n1)CCC2

- IC50 [1]: 863 nM
Compound: CON(C)C(=O)c1cccc2c1cc(C)n2-c1nc2c(c(NCc3cccc(O)c3)n1)CCC2

- IC50 [1]: 2470 nM
Compound: COc1ccc(/C=C/C(=O)Nc2cccc3c2cc(C)n3-c2nc3c(c(NCc4cccc(O)c4)n2)CCC3)cc1

- IC50 [1]: 97 nM
- IC50 (HCT-116 [2]): 800 nM
Compound: Cc1cc2c(NS(C)(=O)=O)cccc2n1-c1nc2c(c(NCc3cccc(O)c3)n1)CCC2
